Reference: PubChem BioAssay (NCI)
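Interpolation was linear, between the two tested concentrations surrounding the appropriate level; five concentrations were tested over 48 hours in 96-well plates. TGI: concentration producing complete growth inhibition.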

Legend:
Test in all cases: growth of human tumour cells (NCI), 48 h
[1] = test system: 786-0 renal
[2] = test system: A549 NSCLC
[3] = test system: ACHN renal
[4] = test system: BT-549 breast
[5] = test system: CAKI-1 renal
[6] = test system: COLO 205 colon
[7] = test system: DU-145 prostate
[8] = test system: EKVX NSCLC
[9] = test system: HCC-2998 colon
[10] = test system: HCT-116 colon
[11] = test system: HCT-15 colon
[12] = test system: HL-60(TB) leukemia
[13] = test system: HOP-62 NSCLC
[14] = test system: HOP-92 NSCLC
[15] = test system: HS 578T breast
[16] = test system: HT29 colon
[17] = test system: IGROV1 ovarian
[18] = test system: KM12 colon
[19] = test system: M14 melanoma
[20] = test system: MALME-3M melanoma
[21] = test system: MCF7 breast
[22] = test system: MDA-MB-231 breast
[23] = test system: MDA-MB-435
[24] = test system: MDA-N
[25] = test system: NCI-H23 lung
[26] = test system: NCI-H460 lung
[27] = test system: NCI-H522 lung
[28] = test system: NCI/ADR-RES ovarian
[29] = test system: OVCAR-3 ovarian
[30] = test system: OVCAR-4 ovarian
[31] = test system: OVCAR-5 ovarian
[32] = test system: RPMI-8226 leukemia
[33] = test system: SF-268 CNS
[34] = test system: SF-295 CNS
[35] = test system: SF-539 CNS
[36] = test system: SK-MEL-2 melanoma
[37] = test system: SK-MEL-28 melanoma
[38] = test system: SK-MEL-5 melanoma
[39] = test system: SK-OV-3 ovarian
[40] = test system: SN12C renal
[41] = test system: SNB-19 CNS
[42] = test system: SNB-75 CNS
[43] = test system: SR leukemia
[44] = test system: T-47D breast
[45] = test system: TK-10 renal
[46] = test system: U251 CNS
[47] = test system: UACC-62 melanoma
[48] = test system: UO-31 renal
[49] = test system: A498 renal
[50] = test system: CCRF-CEM leukemia
[51] = test system: K-562 leukemia
[52] = test system: LOX IMVI melanoma
[53] = test system: MOLT-4 leukemia
[54] = test system: NCI-H226 lung
[55] = test system: OVCAR-8 ovarian
[56] = test system: PC-3 prostate
[57] = test system: RXF 393 renal
[58] = test system: SW-620 colon
[59] = test system: UACC-257 melanoma

`CC1(C)O[C@H]2Cn3c(c(C#N)c4ccccc43)[C@H]2O1` gave a TGI [1] greater than 100 µM, a TGI [2] greater than 100 µM and a TGI [3] greater than 100 µM. It also gave a TGI [4] greater than 100 µM, a TGI [5] greater than 100 µM and a TGI [6] greater than 100 µM. For the same compound, the TGI [7] was greater than 100 µM, the TGI [8] was greater than 100 µM and the TGI [9] was greater than 100 µM. It also gave a TGI [10] greater than 100 µM, a TGI [11] greater than 100 µM and a TGI [12] greater than 100 µM. The TGI [13] was greater than 100 µM, the TGI [14] was greater than 100 µM and the TGI [15] was greater than 100 µM. For the same compound, the TGI [16] was greater than 100 µM, the TGI [17] was greater than 100 µM and the TGI [18] was greater than 100 µM. The TGI [19] was greater than 100 µM, the TGI [20] was greater than 100 µM and the TGI [21] was greater than 100 µM. For the same compound, the TGI [22] was greater than 100 µM, the TGI [23] was greater than 100 µM and the TGI [24] was greater than 100 µM. The TGI [25] was greater than 100 µM, the TGI [26] was greater than 100 µM and the TGI [27] was greater than 100 µM. For the same compound, the TGI [28] was greater than 100 µM, the TGI [29] was greater than 100 µM and the TGI [30] was greater than 100 µM. The TGI [31] was greater than 100 µM, the TGI [32] was greater than 100 µM and the TGI [33] was greater than 100 µM. The TGI [34] was greater than 100 µM, the TGI [35] was greater than 100 µM and the TGI [36] was greater than 100 µM. It also gave a TGI [37] greater than 100 µM, a TGI [38] greater than 100 µM and a TGI [39] greater than 100 µM. The TGI [40] was greater than 100 µM, the TGI [41] was greater than 100 µM and the TGI [42] was greater than 100 µM. For the same compound, the TGI [43] was greater than 100 µM, the TGI [44] was greater than 100 µM and the TGI [45] was greater than 100 µM. It also gave a TGI [46] greater than 100 µM, a TGI [47] greater than 100 µM and a TGI [48] greater than 100 µM.

`c1ccc(C2=NC3(CCCCC3)N(c3nc4ccccc4s3)N2)nc1` gave a TGI [1] of 42.2 µM, a TGI [49] greater than 100 µM and a TGI [2] greater than 100 µM. For the same compound, the TGI [3] was greater than 100 µM, the TGI [4] was 58.2 µM and the TGI [5] was 91.5 µM. The TGI [50] was 87.2 µM, the TGI [6] was 41.4 µM and the TGI [7] was greater than 100 µM. It also gave a TGI [8] greater than 100 µM, a TGI [10] greater than 100 µM and a TGI [11] greater than 100 µM. The TGI [12] was 80.3 µM, the TGI [13] was greater than 100 µM and the TGI [14] was greater than 100 µM. The TGI [15] was greater than 100 µM, the TGI [16] was 58 µM and the TGI [17] was greater than 100 µM. The TGI [51] was greater than 100 µM, the TGI [18] was 75.9 µM and the TGI [52] was 51.6 µM. It also gave a TGI [19] of 59.2 µM, a TGI [20] greater than 100 µM and a TGI [21] greater than 100 µM. For the same compound, the TGI [22] was 64.7 µM, the TGI [23] was 63.6 µM and the TGI [24] was 86.5 µM. It also gave a TGI [53] greater than 100 µM, a TGI [54] of 65.6 µM and a TGI [25] of 84.8 µM. The TGI [26] was 32 µM, the TGI [27] was greater than 100 µM and the TGI [28] was 65.3 µM. It also gave a TGI [29] of 51.2 µM, a TGI [30] greater than 100 µM and a TGI [31] greater than 100 µM. The TGI [55] was greater than 100 µM, the TGI [56] was 46.9 µM and the TGI [32] was 52.8 µM. It also gave a TGI [57] of 57.7 µM, a TGI [33] greater than 100 µM and a TGI [34] greater than 100 µM. The TGI [35] was greater than 100 µM, the TGI [36] was 42.6 µM and the TGI [37] was greater than 100 µM. The TGI [38] was 40.6 µM, the TGI [39] was greater than 100 µM and the TGI [40] was 69.9 µM. It also gave a TGI [41] greater than 100 µM, a TGI [42] of 76.6 µM and a TGI [43] of 26.8 µM. For the same compound, the TGI [58] was greater than 100 µM, the TGI [44] was 49.6 µM and the TGI [45] was 52.8 µM. The TGI [46] was 49 µM, the TGI [59] was 43.4 µM and the TGI [47] was greater than 100 µM. It also gave a TGI [48] greater than 100 µM.
